Legend:
[1] = Formulation attempts at 2.5 mg/mL with low concentrations of benzyl alcohol and other non-aqueous solvents; type: physicochemical
Experimental: Initial formulation experiments with low concentrations of various non-aqueous solvents were conducted targeting a bortezomib concentration of 2.5 mg/mL. Attempts to solubilize bortezomib were conducted using low concentrations of benzyl alcohol (2% v/v), or dimethyl sulfoxide (5% v/v), or a combination of these solvents. […] For these formulations, the non-aqueous solvent was added to bortezomib to dissolve it, followed by addition of water to the bortezomib-solvent mixture.

[2] = DMSO in water formulations: dissolution, physical stability, effect of pH on chemical stability; type: physicochemical; conditions: 1 mg/mL, 1% (v/v) DMSO in water, pH 5.5
Experimental: Various concentrations of DMSO were explored as the non-aqueous component of the formulation (2% v/v to 5% v/v in water). Bortezomib was first completely dissolved in the batch volume of DMSO to form a concentrated “premix” solution prior to making up the batch to the target concentration (2.5 mg/mL) with water. This was done to facilitate the subsequent dissolution of bortezomib in the aqueous component. The pH values of the formulations were all approximately 7.
The effect of pH on bortezomib formulations using a low concentration of DMSO in water (4.5% v/v DMSO for the 2.5 mg/mL strength and 1% v/v DMSO for the 1 mg/mL strength) was then assessed. In each case, the bortezomib was first fully dissolved in the batch quantity of DMSO to form a concentrated premix solution, which was then added to water, and the pH adjusted with sodium hydroxide and/or hydrochloric acid to pH ranging from 4 to 8.5. […] Because oxidative degradation is a significant degradation pathway for bortezomib, filled vials were overlayed with nitrogen. These batches were placed on stability at accelerated (25° C.) and long-term storage conditions (2-8° C.). […]

CC(C)C[C@H](NC(=O)[C@H](Cc1ccccc1)NC(=O)c1cnccn1)B(O)O [Bortezomib, [(1R)-3-methyl-1-[[(2S)-1-oxo-3-phenyl-2-[(pyrazinylcarbonyl)amino]propyl]amino]butyl] boronic acid]
Appearance on heating the solution ([1]; heating up to 70° C., precipitated bortezomib not dissolved): a pink color formed indicating degradation of the active
Dissolution on addition of water to bortezomib-solvent mixture ([1]; target 2.5 mg/mL, benzyl alcohol (2% v/v), DMSO (5% v/v) or combination, mixing >3 hours): precipitated after addition of water
Total Impurities after 2 months at 25° C. (%) [2]: 0.52%

Source: patent US20230104074A1, “BORTEZOMIB COMPOSITIONS” (MAIA Pharmaceuticals, Inc., priority 2021, published 2023)
